Consider two substances from US20060122180A1, “Therapeutic treatment” (priority 2002, published 2006).

Bridge positions count the residues as written; N and C are the ends. Ends that are not written are not given here.

Format in all cases: cell-based, mouse
Common to all, as to conditions: MC-3T3.E1/J1 cells, serum starved, stimulated for 3 minutes

In experiment [1] the test system is phospho-p44/42 mitogen activated proteine kinase (MAPK) (Thr 202/204). Put plainly: Western blot of p44/42 MAPK phosphorylation in growth-factor-stimulated MC3T3.E1/J1 osteoblastic cells. From the text:
(§1) The MC3T3. E1/J1 cell line was isolated from a parental cell line, MC3T3-E1 (available from Invitrogen), which had in turn been derived from newborn C57BL/6 mouse calvaria. The MC3T3 E1/J1 line is described as an osteoblastic line. Care is taken in culture not to use a medium with a pH greater than 7.5 or to allow the cells to become confluent, as this causes a de-differentiation to form a fibroblastic phenotype. This reversion to a fibroblastic phenotype is a common feature of osteoblastic cell cultures.
(§2) MC3T3.E1/J1 cells were routinely maintained in complete media (α-modified minimum essential medium eagle+10% foetal calf serum+1% glutamine+10% M1). MC3T3.E1/J1 cells were plated at 1.7×10^4 cells/well (24 well plates) in complete media and incubated at 37° C. in 5% CO2 for 48 hours. Cells were washed twice in phosphate buffered saline and re-incubated for approximately 17 hours in serum starvation media (α-modified minimum essential medium eagle+1% glutamine).
(§3) Cells were then stimulated with growth factor (ET-1 or EGF) for 3 minutes. All media was then removed and the cells lysed in 2× laemli buffer. Following electrophoresis and western blotting, membranes were probed with phospho-p44/42 mitogen activated proteine kinase (MAPK)^(Thr 202/204), phosphor-AKT^(Ser 473) and phospho-EGF Receptor^(tyr 1173) specific antibodies.
In general terms: In western blotting, separated proteins are transferred to a membrane and probed.

The next experiment has as its system phosphor-AKT (Ser 473). Description: Western blot of AKT phosphorylation in growth-factor-stimulated MC3T3.E1/J1 osteoblastic cells.
From the text: as §1, §2, §3

Experiment [2] deals with phospho-EGF Receptor (tyr 1173). Put plainly: Western blot of EGF receptor phosphorylation in growth-factor-stimulated MC3T3.E1/J1 osteoblastic cells.
From the text: as §1, §2, §3

Consider “endothelin-1 (CSCSSLMDKECVYFCHLDIIW; disulfide 1-15, 3-11; ends not checked; UniProt P05305 53-73, looked up) [ET-1, endogenous 21 amino acid peptide, endothelin isoform, used as growth factor stimulus]”, for which the “p44/42 MAPK phosphorylation” value in experiment [1] was “stimulates”.

Consider “epidermal growth factor [EGF, growth factor used as stimulus]”, for which, in experiment [1], the “p44/42 MAPK phosphorylation” value was “stimulates”. Further, in the experiment with phosphor-AKT (Ser 473), the AKT phosphorylation entry is given as “stimulates”. In addition, in experiment [2], the “EGFR tyr1173 phosphorylation” value is “stimulates”.
